PMC11903733 (Frontiers in Pharmacology, 2025)

How the values were obtained:
[1] = target: T1, LSD1 (Homo sapiens, UniProt O60341); assay: Lance Ultra LSD1 demethylase TR-FRET enzyme inhibition assay; assay type: biochemical; settings: recombinant human LSD1 (172–852 aa) 2 nM, Bio-H3K4me2 substrate, 1 h, TR-FRET; mean ± SD, n = 3
T1 construct: Recombinant human LSD1 (172–852 aa); by word order LSD1 from Sino Biological
Description: (§1) These were utilized in both in vitro and in vivo assays. Iscove’s Modified Dulbecco’s Medium (IMDM), Roswell Park Memorial Institute (RPMI)-1640 medium, fetal bovine serum (FBS) and penicillin/streptomycin were purchased from Gibco (Grand Island, New Nork, United States). Recombinant human LSD1 (172–852 aa) and full-length LSD2 were obtained from Sino Biological Inc. and ActiveMotif.
(§2) The inhibitory effects of the tested compounds on LSD1 and LSD2 enzymes were methodically assessed using the Lance Ultra LSD1 Histone H3-Lysine 4 Demethylase Assay Kit from PerkinElmer, adhering to previously published methodologies ([Li et al., 2022]). In brief, the reaction was initiated by adding 4 μL of enzyme solution, with concentrations specified at 2 nM for LSD1 or 172 nM for LSD2, 4 μL of substrate solution [2.5 μM Bio-H3K4me2 ([…])], and 2 μL of tested compound to a Tris buffer (50 mM Tris-HCl, 50 mM NaCl, 0.01% Tween 20, 1 mM DTT, 10 μM FAD, 10% glycerol, pH 9.0) at room temperature and incubated for 1 h. Following the incubation, 5 μL of a detection mixture, comprising an Eu-labeled H3K4me0 antibody and ULight Streptavidin, was added to the reaction. The fluorescence intensity was then measured employing TR-FRET mode with excitation and emission wavelengths set at 320 nm and 665 nm, respectively, utilizing the Envision (PerkinElmer) system. Each experiment was performed in triplicate.

[2] = target: T2, LSD2 (Homo sapiens, UniProt Q8NB78); assay: Lance Ultra demethylase TR-FRET enzyme inhibition assay, LSD2; assay type: biochemical; settings: full-length LSD2 172 nM, Bio-H3K4me2 substrate, 1 h, mean ± SD, n = 3
T2 construct: full-length LSD2; by word order LSD2 from ActiveMotif
T2 sequence (Q8NB78 1-822): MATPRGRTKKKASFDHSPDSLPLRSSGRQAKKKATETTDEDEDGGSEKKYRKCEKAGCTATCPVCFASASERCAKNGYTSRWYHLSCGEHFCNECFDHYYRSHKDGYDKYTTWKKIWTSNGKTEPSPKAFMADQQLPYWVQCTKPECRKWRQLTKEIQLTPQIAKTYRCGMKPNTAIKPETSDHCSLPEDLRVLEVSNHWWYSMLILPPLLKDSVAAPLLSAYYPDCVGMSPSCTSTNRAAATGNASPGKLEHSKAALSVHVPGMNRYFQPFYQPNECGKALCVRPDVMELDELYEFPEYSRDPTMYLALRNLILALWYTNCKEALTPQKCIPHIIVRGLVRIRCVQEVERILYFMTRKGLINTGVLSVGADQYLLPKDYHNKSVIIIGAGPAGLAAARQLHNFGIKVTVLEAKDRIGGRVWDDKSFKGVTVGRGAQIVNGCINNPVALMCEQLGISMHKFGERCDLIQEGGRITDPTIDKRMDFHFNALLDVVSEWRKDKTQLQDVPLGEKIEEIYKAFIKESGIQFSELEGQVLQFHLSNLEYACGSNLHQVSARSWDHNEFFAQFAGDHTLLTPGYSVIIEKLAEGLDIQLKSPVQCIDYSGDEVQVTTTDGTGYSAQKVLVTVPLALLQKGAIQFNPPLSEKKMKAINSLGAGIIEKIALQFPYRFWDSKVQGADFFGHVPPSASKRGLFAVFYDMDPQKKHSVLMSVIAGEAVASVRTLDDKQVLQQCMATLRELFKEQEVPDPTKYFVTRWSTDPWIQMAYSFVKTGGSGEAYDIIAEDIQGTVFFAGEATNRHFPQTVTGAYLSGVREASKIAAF
Description: as §1, §2

[3] = system: MV-4-11 cells; assay: MTS cell proliferation assay; assay type: cell-based; settings: Homo sapiens, MV4-11, LSD1-addicted MV-4-11 leukemia cells, 72 h
Description: (§3) The myeloid leukemia cell lines MV-4-11, MOLT-4, MOLM-16, HL-60, and the human B lymphocyte cell line […] were purchased from the American Type Culture Collection (ATCC, Manassas, VA, United States). The myeloid leukemia cell line HAL-01 was obtained from the Deutsche Sammlung von Mikroorganismen und Zellkulturen GmbH (DSMZ, Braunschweig, Germany). All cells were cultured in IMDM or RPMI -1640 medium supplemented with 10% FBS, 100 U/mL penicillin, and 100 μg/mL streptomycin. The cells were maintained in a humidified incubator with an atmosphere of 5% CO2 at 37°C.
(§4) The in vitro anti-proliferative activity of the compounds was determined using the CellTiter 96® AQueous NonRadioactive Cell Proliferation Assay Kit (Promega, Madison, United States) as previously described ([Ji et al., 2017]). In brief, 5–10 × 10^3 cells and 180 μL of medium were first seeded into each well of a 96-well plate. Subsequently, the cells were exposed to either 0.2% Dimethyl sulfoxide (DMSO, Aladdin Reagent, Shanghai, China) or a serial dilution of the compounds, prepared from a 10 mM stock solution in DMSO, with the final concentration of DMSO being 0.2% for 72 h. 20 μL of MTS reagent was added to each well, and the culture was incubated in the dark at 37°C for 4 h. Finally, the optical density (OD) was then recorded at 490 nm and 690 nm using a microplate reader from Molecular Devices. The proliferation inhibition rate was calculated according to the following formula: inhibition ratio = (OD of DMSO treated wells - OD of compound treated wells)/(OD of DMSO treated wells - OD of blank wells) × 100%. The IC50 values of the compounds inhibiting cell proliferation were calculated using GraphPad Prism 10 (GraphPad Software Inc., San Diego, CA).

[4] = system: RPMI-8226 cells; assay: MTS cell proliferation assay; assay type: cell-based; settings: Homo sapiens, LSD1-non-sensitive RPMI-8226 cells, 72 h
Description: as §3, §4

[5] = system: HAL-01; assay: MTS cell proliferation assay; assay type: cell-based; settings: Homo sapiens, growth inhibition after 72 h
Description: as §3, §4
(§5) ^aIC50 (μM) is the concentration of compound needed to reduce cell growth by 50% after 72 h treatment with LTM-1.

[6] = system: HL-60; assay: MTS cell proliferation assay; assay type: cell-based; settings: Homo sapiens, growth inhibition after 72 h
Description: as §3, §4, §5

[7] = system: MOLM-16; assay: MTS cell proliferation assay; assay type: cell-based; settings: MOLM16; growth inhibition after 72 h
Description: as §3, §4, §5

[8] = system: MOLT-4; assay: MTS cell proliferation assay; assay type: cell-based; settings: Homo sapiens, growth inhibition after 72 h
Description: as §3, §4, §5

O=S(=O)(c1ccc(C(O)CO)c(C(F)(F)F)c1)N1CCc2cc(C3CC3NCC3CCNCC3)ccc21 (centres unmarked) [LTM-1]
IC50 [1]: 2.11 ± 0.14 nM
IC50 [2]: > 5000 nM
IC50 [3]: 0.16 ± 0.01 µM
IC50 [4]: > 100 µM
IC50 [5]: 0.25 ± 0.01 µM
IC50 [6]: 0.39 ± 0.03 µM
IC50 [7]: 0.27 ± 0.02 µM
IC50 [8]: 0.19 ± 0.01 µM
